{
  "source": "patent US20030018074A1",
  "about": "“Antiviral composition and treatment method” (priority 2001, published 2003)",
  "origin": "cited, not measured here",
  "key": {"[1]": {"system": "early viral protein synthesis"}, "HSV-2": {"system": "HSV-2", "conditions": "for EC50: HSV-2, Vero cells, surfactant suspension, read-out: effective concentration required to inhibit plaque formation by 50% (EC50)"}, "[2]": {"system": "HSV-1 dorsal cutaneous infection", "conditions": "5% in a branch chain ester base; guinea pigs"}, "HSV-2 virus": {"system": "HSV-2 virus", "conditions": "incubation of HSV-2 with the suspension for 2 hours"}},
  "note": "Read-outs that look alike come from different tables or passages of the source.",
  "data": [
    {"smiles": "CCCCCCCCCCCCCCCCCCCCCCO", "note": "[n-docosanol]", "values": [
      {"measurement": "inhibition of early viral protein synthesis", "setting": "[1]", "result": "more than 80%"},
      {"measurement": "EC50", "setting": "HSV-2", "result": 9, "unit": "mM"},
      {"measurement": "concentrations where effective", "setting": "HSV-2; Vero cultures", "result": "2 to 15", "unit": "mM"}
    ]},
    {"smiles": "CCCCCCCCCCCCCCCCCCCCCCCCCCCCCCO", "note": "[triacontanol, 1-triacontanol]", "values": [
      {"measurement": "efficacy for the treatment of HSV-1 dorsal cutaneous infection (in words)", "setting": "[2]", "result": "a certain amount of efficacy"}
    ]},
    {"smiles": "CCCCCCCC/C=C\\CCCCCCCCCCCC(N)=O", "note": "[erucamide, cis-13-docosenoamide]", "values": [
      {"measurement": "percent inhibition of plaque formation", "setting": "HSV-2; 0.03 mM", "result": 34, "unit": "%"},
      {"measurement": "percent inhibition of plaque formation", "setting": "HSV-2; 0.59 mM", "result": 42, "unit": "%"},
      {"measurement": "percent inhibition of plaque formation", "setting": "HSV-2; 0.89 mM", "result": 44, "unit": "%"},
      {"measurement": "percent inhibition of plaque formation", "setting": "HSV-2; 1.2 mM", "result": 58, "unit": "%"},
      {"measurement": "percent inhibition of plaque formation", "setting": "HSV-2; 1.5 mM", "result": 68, "unit": "%"}
    ]},
    {"smiles": "CCCCCCCC/C=C\\CCCCCCCCCCCCO", "note": "[erucyl alcohol, cis-13-docosen-1-ol]", "values": [
      {"measurement": "cellular toxicity (in words)", "setting": "Vero cells; 1 mM", "result": "no cellular toxicity was observed"},
      {"measurement": "toxicity to Vero cells (in words)", "setting": "Vero cells; added to cultures at 2-15 mM", "result": "toxic to Vero cells"},
      {"measurement": "EC50", "setting": "HSV-2", "result": 0.15, "unit": "mM"},
      {"measurement": "inhibition of HSV-2 plaque production", "setting": "HSV-2; concentrations tolerable to the cells (≦1 mM)", "result": "≤ 93", "unit": "%"},
      {"measurement": "EC50 lower than the concentration required for n-docosanol", "setting": "HSV-2; ratio of EC50 n-docosanol to EC50 erucyl alcohol", "result": 60, "unit": "fold"},
      {"measurement": "direct virucidal effect (in words)", "setting": "HSV-2 virus", "result": "did not have a direct virucidal effect"}
    ]},
    {"smiles": "CCCCCCCC/C=C/CCCCCCCCCCCCO", "note": "[brassidyl alcohol, trans-13-docosen-1-ol]", "values": [
      {"measurement": "cellular toxicity (in words)", "setting": "Vero cells; compared with erucyl alcohol", "result": "significantly less than that of erucyl alcohol"}
    ]},
    {"smiles": "CCCCC/C=C\\C/C=C\\C/C=C\\CCCCCO", "note": "[γ-linolenyl alcohol]", "values": [
      {"measurement": "inactivation of viruses, rank among C14 to C20 unsaturated alcohols (in words)", "setting": "viruses", "result": "most effective"}
    ]}
  ]
}
